In publication PMC11786100, “Chronic GIPR agonism results in pancreatic islet GIPR functional desensitisation” (Molecular Metabolism, 2025):

How the values were obtained:
[1] = tested on: lean and HFD-induced obese mice; experiment: In vivo GIPR desensitisation: IPGTT and insulin bleeds; design: species or system mouse
Description: In all in vivo studies, mice were randomised by body weight into groups. Mice received a 50 μL subcutaneous injection of saline (0.9% sodium chloride) or peptide at a specified dose, diluted in saline. Peptide dosing was in nmol per kg of total body weight. For the assessment of the chronic effects of GIP108, mice were injected daily for 15 days. Body composition was measured by EchoMRI on day −1 and day 15. An intraperitoneal glucose tolerance test (IPGTT) (2 g/kg) was conducted on day 14, following 6 h of fasting and 2 h after peptide injection. Non-fasting plasma leptin (ab199082, Abcam, UK), adiponectin (ab226900, Abcam, UK) and amino acids (ab65347, Abcam, UK) were measured on day 16. For the assessments of in vivo GIPR desensitisation, mice were injected at 17:00 with vehicle or GIP108 (30 nmol/kg) prior to an acute food intake study/IPGTT/insulin bleeds conducted the following day. Full details of the in vivo studies are provided in the supplementary methods.
Mice were fasted at 08:00. For all studies, 20% glucose was administered at 14:00, with the injection volume adjusted to the body weight of the mouse such that each mouse received glucose at 2 g/kg. To assess effects of GIP108 on day 14 of the chronic study, mice were dosed with saline or GIP108 at a specified dose at 12:00. […] Blood glucose measurements were taken via tail vein venesection at baseline, t=15, t=30, t=60, t=90 and t=120 mins. Glucose AUC is calculated using y=0. Glucose readings were measured in mmol/L using the same GlucoRx glucometer.
Mice were fasted at 08:00. At 14:00, mice received an intraperitoneal injection with 20% glucose, with the injection volume adjusted to the body weight of the mouse such that each mouse received glucose at 2 g/kg. […] Blood samples were taken via tail vein venesection at baseline and t=15 minutes following injection.
Leptin, adiponectin and amino acids were quantified following chronic GIP108 administration. Plasma amino acids were measured using the Abcam L-amino acid assay kit (ab65347, Abcam, UK). Plasma adiponectin was measured using the Abcam mouse adiponectin ELISA kit (ab226900, Abcam, UK). Plasma leptin was measured using the Abcam mouse leptin ELISA kit (ab199082, Abcam, UK). All assays were performed according to the manufacturer’s protocol and were read using the SpectraMax i3x Microplate Reader (Molecular Devices, US).

[2] = target: T1, human GLP-1R (Homo sapiens, UniProt P43220); experiment: HTRF cAMP assay in transiently transfected AD-293 cells; format: cell-based; details: 30 min stimulation, n = 3–5
T1 construct: Plasmids encoding full length, wild-type human or mouse GLP-1R, GIPR or glucagon receptor (GCGR) in the pcDNA5/FRT vector; host or cells: AD-293
T1 sequence (P43220 24-463): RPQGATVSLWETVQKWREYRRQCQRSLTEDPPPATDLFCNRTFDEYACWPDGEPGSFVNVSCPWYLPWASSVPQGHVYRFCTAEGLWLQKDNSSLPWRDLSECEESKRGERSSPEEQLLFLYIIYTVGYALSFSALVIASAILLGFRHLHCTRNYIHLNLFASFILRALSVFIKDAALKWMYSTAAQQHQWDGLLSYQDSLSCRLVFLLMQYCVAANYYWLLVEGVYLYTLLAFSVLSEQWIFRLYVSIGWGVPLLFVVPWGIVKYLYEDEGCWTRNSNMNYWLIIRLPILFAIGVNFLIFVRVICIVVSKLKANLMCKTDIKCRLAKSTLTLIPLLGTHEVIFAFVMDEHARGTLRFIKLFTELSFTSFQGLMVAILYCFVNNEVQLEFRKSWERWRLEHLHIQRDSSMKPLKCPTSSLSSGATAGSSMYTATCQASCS
Description: AD-293 cells were transfected with desired plasmid DNA 24 h prior to cAMP quantification using the cAMP-Gs Dynamic 2 kit (Cisbio, France), as per manufacturer's protocol. Full details are provided in the supplementary methods.
AD-293 cells were added to a 12-well plate and maintained in 2 ml complete DMEM. 1 μg of specified plasmid DNA was added to each well alongside Lipofectamine 2000 (Thermo Fisher, UK). cAMP production was quantified 24 hours following transfection using homogenous time resolved fluorescence (HTRF), specifically the cAMP-Gs Dynamic 2 kit (Cisbio, France). Peptides and cells were diluted in DMEM + 1% P/S + 0.1% BSA. For peptide stability testing, cells, fresh peptide and peptide incubated with dispersed islet cells were diluted in RPMI-1640 (Thermo Fisher, UK) + 10% FBS + 1% P/S. 10 μl of peptide and 10 μl of cell suspension were added in duplicate to an opaque 96-well plate (Grenier Bio-One, Austria) and incubated at 37°C for 30 minutes. 10 μl of cAMP-d2 and anti-cAMP cryptate, both diluted in lysis buffer, were added in quick succession as per the manufacturer’s protocol. The plates were then incubated at room temperature for 45 minutes and read using the SpectraMax i3x (Molecular Devices, US).

[3] = target: T2, mouse SNAP-tagged GLP-1R (Mus musculus, UniProt O35659); experiment: β-arrestin-2 activation assay (Borealis sensor) in AD-293 cells; format: cell-based; details: 10 nM, 30-minute stimulation, n = 5–6
T2 construct: host or cells: AD-293
T2 sequence (O35659 22-463): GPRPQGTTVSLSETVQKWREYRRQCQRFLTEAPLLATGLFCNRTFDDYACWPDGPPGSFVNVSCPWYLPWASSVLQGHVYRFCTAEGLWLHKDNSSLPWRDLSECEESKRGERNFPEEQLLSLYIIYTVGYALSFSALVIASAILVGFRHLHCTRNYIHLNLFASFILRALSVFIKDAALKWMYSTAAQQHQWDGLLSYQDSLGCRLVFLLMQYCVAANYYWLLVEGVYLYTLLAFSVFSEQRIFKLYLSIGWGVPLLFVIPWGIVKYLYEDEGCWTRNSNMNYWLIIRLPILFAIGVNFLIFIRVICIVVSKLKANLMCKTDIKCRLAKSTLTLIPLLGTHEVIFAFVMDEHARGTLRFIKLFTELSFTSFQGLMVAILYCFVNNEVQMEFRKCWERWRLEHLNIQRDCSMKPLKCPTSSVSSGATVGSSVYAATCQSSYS
Description: AD-293 cells were transfected with desired plasmid DNA encoding a SNAP-tagged GPCR alongside transduction of Bacmam viral particles encoding the Borealis β-arrestin-2 sensor (Montana Molecular, US) and GRK5 (Montana Molecular, US) 24 h prior to assay. Cells were labelled for 10 min with BG-S-S-649 and imaged at baseline and for 30 min following peptide stimulation. Borealis arrestin sensor fluorescence in BG-S-S-649 labelled cells (representing GPCR expressing cells) was quantified and expressed as a % change from baseline. Full details are provided in the supplementary methods.
AD-293 cells were added to a 96-well plate and maintained in 200 μL complete DMEM. […]
Cells were labelled with cleavable SNAP-tag probe BG-S-S-649 in complete DMEM for 10 minutes prior to washing and imaging. […] Cells were imaged at baseline, registering both BG-S-S-649 fluorescence and borealis arrestin sensor fluorescence. Borealis arrestin sensor fluorescence was then imaged for 30 minutes after peptide addition in intervals of 5 minutes. Borealis arrestin sensor fluorescence in BG-S-S-649 labelled cells was quantified using Fiji v1.54f (NIH) and expressed as a % change from baseline.

Molecule	effect of GIP108 pre-treatment on hGIP (50 nmol/kg) improvement of glucose tolerance ([1]; GIP108 30 nmol/kg s.c. 21 h prior to IPGTT, lean and HFD-induced obese mice, n = 14–16)	plasma insulin response to GIP/glucose administration after GIP108 pre-treatment ([1]; GIP108 30 nmol/kg s.c. 21 h prior, hGIP 50 nmol/kg, 15 min, lean mice, n = 8)	cAMP activation of human GLP-1R [2]	β-arrestin-2 activation compared to vehicle control [3]
CC[C@H](C)[C@H](NC(=O)[C@H](CO)NC(=O)[C@H](Cc1ccc(O)cc1)NC(=O)[C@H](CC(=O)O)NC(=O)[C@H](CO)NC(=O)[C@@H](NC(=O)[C@H](Cc1ccccc1)NC(=O)[C@@H](NC(=O)CNC(=O)[C@H](CCC(=O)O)NC(=O)C(C)(C)NC(=O)[C@@H](N)Cc1ccc(O)cc1)[C@@H](C)O)[C@@H](C)CC)C(=O)N[C@@H](C)C(=O)N[C@@H](CC(C)C)C(=O)N[C@@H](CC(=O)O)C(=O)N[C@@H](CCCCN)C(=O)N[C@H](C(=O)N[C@@H](Cc1c[nH]cn1)C(=O)N[C@@H](CCC(N)=O)C(=O)N[C@@H](CCC(N)=O)C(=O)N[C@@H](CC(=O)O)C(=O)N[C@@H](Cc1ccccc1)C(=O)N[C@H](C(=O)N[C@@H](CC(N)=O)C(=O)N[C@@H](Cc1c[nH]c2ccccc12)C(=O)N[C@@H](CC(C)C)C(=O)N[C@@H](CC(C)C)C(=O)N[C@@H](C)C(=O)N[C@@H](CCC(N)=O)C(=O)N[C@@H](CCCCN)C(=O)NCC(=O)N[C@@H](CCCCNC(=O)CC[C@H](NC(=O)CCCCCCCCCCCCCCCCCCC(=O)O)C(=O)O)C(=O)N[C@@H](CCCCN)C(=O)N[C@@H](CC(N)=O)C(=O)N[C@@H](CC(=O)O)C(=O)N[C@@H](Cc1c[nH]c2ccccc12)C(=O)N[C@@H](CCCCN)C(=O)N[C@@H](Cc1c[nH]cn1)C(=O)N[C@@H](CC(N)=O)C(=O)N[C@H](C(=O)N[C@H](C(=O)N[C@@H](CCC(N)=O)C(=O)O)[C@@H](C)O)[C@@H](C)CC)C(C)C)[C@@H](C)CC [GIP108]	ability to improve glucose tolerance was reduced	blunted	minimal activation	
GLP-1(7–36)·NH2				significant β-arrestin-2 activation
